According to patent US10875861B1, “Therapeutic compounds” (Rutgers, The State University of New Jersey, priority 2017, dated 2020):

Tested on: glioblastoma cancer cell line
Test: MTT viability assay with glioblastoma cancer cell line (Test A)
Assay type: cell-based, human
Details: Homo sapiens, 72 hours
Text: To generate primary patient-derived GBM models for testing small molecule inhibitors, fresh primary tissues were received from patients undergoing surgical resection of WHO grade IV gliomas at Robert Wood Johnson University Hospital (RWJUH) under an approved IRB protocol. De-identified primary human GBM samples were delivered to the laboratory. Cells were obtained through mechanical dissociation of the tumor tissue using a blade and plated in DMEM/F12 medium (Gibco) in the presence of B-27 Supplement (Gibco, #17504-044), 20 ng/ml of human recombinant EGF (Gibco, #PHG0311L) and human recombinant FGF (Peprotech, #AF-100-18B). The following day, the culture was collected, incubated with Accutase (Gibco, #A11105-01) at 37° C. and passed through a 26G×⅜ needle (BD Precision Glide, #305110) to obtain a single cell suspension and re-plated in the same supplemented medium. Cells were cultured at low (5-6) passages in serum-free sphere 3D culture with mitogens that preserve the clonogenic stemness phenotype. […] different primary GBM cells (GBM #46, GBM #50, and GBM #76) were tested for cell viability after treatment with the inhibitors. Cell viability was measured using MTT assay. Briefly, one thousand cells per well were seeded in 96-well plates and exposed to drug in a total of 200 uL media. After 72 hours, 50 uL of stock concentration of 2.5 mg/mL 3-(4,5-dimethylthiazol-2-yl)-2,5-diphenyltetrazolium bromide (MTT) (Sigma, #M2128) dissolved in PBS was added to wells and incubated at 37° C. for 4 hours; read in a […] plate reader at 570 nm and compared to DMSO and untreated cells. The IC50 (defined as the concentration at which 50% of the cells were viable) was determined from the curve.
Accordingly, compounds of the invention may be useful as therapeutic agents for the treatment of cancer.
To generate primary patient-derived GBM models for testing small molecule inhibitors, fresh primary tissues were received from patients undergoing surgical resection of WHO grade IV gliomas at Robert Wood Johnson University Hospital (RWJUH) under an approved RB protocol. De-identified primary human GBM samples were delivered to the laboratory. Cells were obtained through mechanical dissociation of the tumor tissue using a blade and plated in DMEM/F12 medium (Gibco) in the presence of B-27 Supplement (Gibco, #17504-044), 20 ng/ml of human recombinant EGF (Gibco, #PHG0311L) and human recombinant FGF (Peprotech, #AF-100-18B). […] Cell viability was measured using MTT assay. […] After 72 hours, 50 uL of stock concentration of 2.5 mg/mL 3-(4,5-dimethylthiazol-2-yl)-2,5-diphenyltetrazolium bromide (MTT) (Sigma, #M2128) dissolved in PBS was added to wells and incubated at 37° C. for 4 hours; read in a […] plate reader at 570 nm and compared to DMSO and untreated cells. […]

EC50: 5 µM
Structure (SMILES): COc1ccc(Nc2nc(-c3nc4ncccn4c3C)cs2)cc1 [Example B1, N-(4-methoxyphenyl)-4-(3-methylimidazo[1,2-a]pyrimidin-2-yl)thiazol-2-amine]
